Reference: PubChem BioAssay (NCI)
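Five concentrations, 48 hours, 96-well plates. At the TGI there is no net growth.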

Tests used:
Assay in all cases: growth of human tumour cells (NCI), 48 h
SW-620 colon = test system: SW-620 colon
SK-MEL-5 melanoma = test system: SK-MEL-5 melanoma
SK-MEL-28 melanoma = test system: SK-MEL-28 melanoma
NCI-H460 lung = test system: NCI-H460 lung
CCRF-CEM leukemia = test system: CCRF-CEM leukemia
UACC-62 melanoma = test system: UACC-62 melanoma
HCT-15 colon = test system: HCT-15 colon
HT29 colon = test system: HT29 colon
MDA-N = test system: MDA-N
BT-549 breast = test system: BT-549 breast
MCF7 breast = test system: MCF7 breast
SK-OV-3 ovarian = test system: SK-OV-3 ovarian
SF-539 CNS = test system: SF-539 CNS

Row | SMILES | TGI (SW-620 colon) [µM] | TGI (SK-MEL-5 melanoma) [µM] | TGI (SK-MEL-28 melanoma) [µM] | TGI (NCI-H460 lung) [µM] | TGI (CCRF-CEM leukemia) [µM] | TGI (UACC-62 melanoma) [µM] | TGI (HCT-15 colon) [µM] | TGI (HT29 colon) [µM] | TGI (MDA-N) [µM] | TGI (BT-549 breast) [µM] | TGI (MCF7 breast) [µM] | TGI (SK-OV-3 ovarian) [µM] | TGI (SF-539 CNS) [µM]
1 | CN1C/C(=C\c2cccs2)C(=O)/C(=C/c2cccs2)C1 | > 100 | > 100 | > 100 | > 100 | 26.7 | > 100 | > 100 | 50.5 | 61.7 | 72.1 | > 100 | > 100 | –
2 | CC(C)(C)OC(=O)NNCC(O)COc1ccccc1 (stereo unspecified) | > 100 | > 100 | > 100 | > 100 | > 100 | > 100 | > 100 | > 100 | > 100 | > 100 | > 100 | > 100 | > 100
3 | Cc1ccc(C)c2c1n1c(=O)n(C)c(=O)n21 | > 100 | > 100 | > 100 | > 100 | > 100 | > 100 | > 100 | > 100 | > 100 | > 100 | > 100 | > 100 | > 100
4 | Cc1cc(O)c(C(C)C)cc1C(=S)Nc1ccc(Cl)cc1 | 33.9 | 23.8 | 28.6 | 27.4 | 16.7 | 22.3 | 25.1 | 27.9 | 23.7 | 30.7 | 22.9 | 36.4 | 29.6
5 | CC(C)=CCC[C@@H](C)C1=C(O)C(Nc2ccccc2)=C(C)C(=O)C1=O | > 100 | 55.6 | > 100 | > 64.5 | 5.78 | 54.5 | > 78.7 | > 96.3 | > 100 | > 100 | > 86 | > 96.2 | 84.8
6 | NC(=S)NS(=O)(=O)c1ccc(Cl)cc1 | > 100 | > 100 | > 100 | > 100 | > 100 | > 100 | > 100 | > 100 | > 100 | > 100 | > 100 | > 100 | > 100
7 | CC1CN=C(c2ccc(CN3CCC(CCCC4CCN(Cc5ccc(C6=NCC(C)N6)cc5)CC4)CC3)cc2)N1 (stereo unspecified) | > 100 | > 100 | > 100 | 36.8 | 67.4 | > 100 | > 100 | > 100 | 38.8 | > 100 | 50.3 | > 100 | > 100
8 | CC1=NN2CCC(=O)N=C2S1 | > 100 | > 100 | > 100 | > 100 | > 100 | > 100 | > 100 | > 100 | > 100 | > 100 | > 100 | > 100 | > 100
9 | CC1=NN(c2nc(N)nc(-c3cc4ccccc4oc3=N)n2)C(C)(C)C1 | – | 30.6 | 30.5 | 34.2 | 48.6 | 34.1 | 35.9 | 40.2 | 31.2 | 47 | > 100 | 34.7 | 34.1
10 | CCCCCCCCCCOc1ccc(N=Nc2nnc(-c3ccc(OCCCCC)cc3)s2)cc1 | > 100 | > 100 | > 100 | > 100 | > 100 | > 100 | > 100 | > 100 | > 100 | > 100 | > 100 | > 100 | > 100
11 | CCN(CCC#N)C(=O)Nc1ccccc1 | > 100 | > 100 | > 100 | > 100 | > 100 | > 100 | > 100 | > 100 | > 100 | > 100 | > 100 | > 100 | > 100
12 | c1ccc(OCc2nnc(CCCCCCCCc3nnc(COc4ccccc4)o3)o2)cc1 | > 100 | > 100 | > 100 | > 100 | > 100 | – | > 100 | > 100 | > 100 | > 100 | > 100 | > 100 | > 100
13 | COC(=O)C(CNC(=O)/C=C/c1ccc(OC(C)=O)c(OC(C)=O)c1)NC(=O)/C=C/c1ccc(OC(C)=O)c(OC(C)=O)c1 (stereo unspecified) | > 100 | > 100 | > 100 | > 100 | > 100 | > 100 | > 100 | > 100 | > 100 | > 100 | > 100 | > 100 | > 100
14 | COC(=O)/C=C\C(C#N)(C#N)N=Cc1ccc(Br)cc1 | > 22.4 | 3.92 | 32.1 | 40.5 | 5.91 | 16.5 | 11.8 | 6.22 | 20.1 | 25.2 | 17.1 | 33.6 | –
15 | O=c1onc(Nc2ccccc2)n1-c1ccccc1 | > 100 | > 100 | > 100 | > 100 | > 100 | > 100 | > 100 | > 100 | > 100 | > 100 | > 100 | > 100 | > 100
